Laboratory results from patent US9999222B2, “Herbicidal combination comprising azines” (BASF SE, priority 2014, dated 2018).
“And” between values parts separate entries of the source, which are not always exact repeats. Equal entries are not always repeated. Where two headings read alike, the source gives them in different places.

Columns and labels:
Test in all cases: Greenhouse test, pre-emergence treatment
MATIN = type: in vivo
APESV = type: in vivo, Apera spica-venti; settings: for inhibition at 12.5 g/ha: use rate 12.5 g ai/ha; for inhibition at 25 g/ha: use rate 25 g ai/ha
From the text: (§1) The culture containers used were plastic flowerpots containing loamy sand with approximately 3.0% of humus as the substrate. The seeds of the test plants were sown separately for each species.
(§2) For the pre-emergence treatment, the active ingredients, which had been suspended or emulsified in water, were applied directly after sowing by means of finely distributing nozzles. The containers were irrigated gently to promote germination and growth and subsequently covered with transparent plastic hoods until the plants had rooted. This cover caused uniform germination of the test plants, unless this had been impaired by the active ingredients.
(§3) Depending on the species, the plants were kept at 10-25° C. or 20-35° C., respectively.
(§4) The test period extended over 2 to 4 weeks. During this time, the plants were tended, and their response to the individual treatments was evaluated.
(§5) Evaluation was carried out using a scale from 0 to 100. 100 means no emergence of the plants, or complete destruction of at least the aerial moieties, and 0 means no damage, or normal course of growth. A moderate herbicidal activity is given at values of at least 60, a good herbicidal activity is given at values of at least 70, and a very good herbicidal activity is given at values of at least 85.
(§6) The respective stated components a and b, and if appropriate, c were formulated as a 10% by weight strength emulsion concentrate and, with addition of the amount of solvent system, introduced into the spray liquor used for applying the active compound.
(§7) In the examples, the solvent used was water.
(§8) In the examples below, using the method of S. R. Colby (1967) “Calculating synergistic and antagonistic responses of herbicide combinations”, Weeds 15, p. 22ff., the value E, which is expected if the activity of the individual active compounds is only additive, was calculated. E=X+Y−(X·Y/100) where • X=percent activity using active compound a at an application rate A; • Y=percent activity using active compound b at an application rate B; • E=expected activity (in %) by a+b at application rates A+B.
(§9) If the value found experimentally is higher than the value E calculated according to Colby, a synergistic effect is present.

SIDRH = type: in vivo, Sida rhombifolia
In short: (§10)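 Seeds were sown in loamy sand with approximately 3.0% humus, then sprayed at once with actives suspended or emulsified in water. Pots were watered, hooded until rooting, held at 10-25° C. or 20-35° C. by species for 2 to 4 weeks, and scored 0 (no damage) to 100 (no emergence/complete destruction).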

ERICA [1] = type: in vivo, Erigeron canadensis
CENCY [2] = type: in vivo, Centaurea cyanus
ELEIN = type: in vivo, Eleusine indica
From the text: as §1, §2, §3, §4, §5, §6, §7, §8, §9

ABUTH = type: in vivo, Abutilon theophrasti; settings: Abutilon theophrasti, 480 h
In short: as §10

DIGSA [3] = type: in vivo, Digitaria sanguinalis; settings: 8 g ai/ha
SETVI = type: in vivo, Setaria viridis
From the text: as §1, §2, §3, §4, §5, §6, §7, §8, §9

CENCY [4] = type: in vivo; settings: 480 h, individual, read-out: observed % activity 20 DAT
DIGSA [5] = type: in vivo; settings: Digitaria sanguinalis, 480 h, read-out: observed % activity 20 DAT
ANTAR = type: in vivo; settings: Anthemis arvensis, 480 h, 20 DAT, read-out: observed % activity
In short: as §10

CENCY [6] = type: in vivo; settings: 480 h, read-out: observed % activity 20 DAT
ERICA [7] = type: in vivo; settings: 480 h, 125 g ai/ha, read-out: observed % activity 20 DAT
[8] = Apera spica-venti, 480 h, APESV, 20 DAT, read-out: observed % activity 20 DAT
[9] = Apera spica-venti, 480 h, read-out: observed % activity 20 DAT

SMILES: COCC(C)N(C(=O)CCl)c1c(C)csc1C (stereo not shown) [Dimethenamid, dimethenamid]
- observed % activity 20 DAT (MATIN; use rate 62.5 g ai/ha): 70%
- observed % activity 20 DAT (MATIN; use rate 125 g ai/ha): 90%
- observed % activity 20 DAT (APESV; use rate 62.5 g ai/ha, 20 DAT): 95%
- pest or weed control at 250 g/ha (SIDRH; Sida rhombifolia, 480 h, pre-emergence, 250 g ai/ha, read-out: observed % activity 20 DAT): 70%
- observed % activity 20 DAT (SIDRH; pre-emergence, 250 g ai/ha): 70%

SMILES: CCC(CC)Nc1c([N+](=O)[O-])cc(C)c(C)c1[N+](=O)[O-] [Pendimethalin, pendimethalin]
- inhibition at 125 g/ha (APESV; Apera spica-venti, 480 h, use rate 125 g ai/ha, read-out: observed % activity 20 DAT): 85%
- inhibition at 250 g/ha (APESV; Apera spica-venti, 480 h, use rate 250 g ai/ha, read-out: observed % activity 20 DAT): 75%
- inhibition at 500 g/ha (APESV; Apera spica-venti, 480 h, use rate 500 g ai/ha, read-out: observed % activity 20 DAT): 95%
- observed % activity 20 DAT (APESV; use rate 125 g ai/ha, 20 DAT): 60%
- observed % activity 20 DAT (APESV; use rate 250 g ai/ha, 20 DAT): 75%
- observed % activity 20 DAT (APESV; use rate 500 g ai/ha, 20 DAT): 95%
- observed % activity 20 DAT (ERICA [1]; 500 g ai/ha): 90%
- observed % activity 20 DAT (ERICA [1]; 1000 g ai/ha): 90%
- observed % activity 20 DAT (CENCY [2]; 500 g ai/ha): 25%
- observed % activity 20 DAT (CENCY [2]; 1000 g ai/ha): 0%
- observed % activity 20 DAT (ELEIN; 500 g ai/ha): 100%

SMILES: Cn1nc(C(F)(F)F)c(CS(=O)(=O)C2=NOC(C)(C)C2)c1OC(F)F [Pyroxasulfone, pyroxasulfone]
- inhibition at 12.5 g/ha (APESV; [8]): 40%
- inhibition at 25 g/ha (APESV; [8]): 50%
- inhibition at 12.5 g/ha (APESV; [9]): 50%
- inhibition at 25 g/ha (APESV; [9]): 60%
- pest or weed control at 24 g/ha (ABUTH; 24 g ai/ha, read-out: observed % activity 20 DAT): 40%
- observed % activity 20 DAT (DIGSA [3]): 95%
- observed % activity 20 DAT (CENCY [2]; 24 g ai/ha): 15%
- observed % activity 20 DAT (SETVI; 8 g ai/ha): 85%
- pest or weed control at 12 g/ha (SIDRH; Sida rhombifolia, 480 h, pre-emergence, 12 g ai/ha, read-out: observed % activity 20 DAT): 45%
- pest or weed control at 24 g/ha (SIDRH; Sida rhombifolia, 480 h, pre-emergence, 24 g ai/ha, read-out: observed % activity 20 DAT): 95%
- observed % activity 20 DAT (SIDRH; pre-emergence, 12 g ai/ha): 45%

SMILES: CC(C)N(C)S(=O)(=O)NC(=O)c1cc(-n2c(=O)cc(C(F)(F)F)n(C)c2=O)c(F)cc1Cl [Saflufenacil, saflufenacil]
- inhibition at 3.125 g/ha (APESV; Apera spica-venti, 480 h, APESV, use rate 3.125 g ai/ha, 20 DAT, read-out: observed % activity 20 DAT): 0%
- inhibition at 10 g/ha (ABUTH; 10 g ai/ha, 20 DAT, read-out: observed % activity): 90%
- inhibition at 10 g/ha (ABUTH; 10 g ai/ha, read-out: observed % activity 20 DAT): 25%
- inhibition at 10 g/ha (ABUTH; ABUTH, individual, use rate 10 g ai/ha, read-out: observed % activity 20 DAT): 25%
- inhibition at 5 g/ha (CENCY [4]; use rate 5 g ai/ha): 20%
- inhibition at 10 g/ha (CENCY [4]; use rate 10 g ai/ha): 30%
- inhibition at 18 g/ha (DIGSA [5]; 18 g ai/ha): 0%
- inhibition at 36 g/ha (DIGSA [5]; 36 g ai/ha): 65%
- inhibition at 5 g/ha (SIDRH; Sida rhombifolia, pre-emergence, 480 h, 5 g ai/ha, 20 DAT, read-out: observed % activity): 55%
- inhibition at 10 g/ha (SIDRH; Sida rhombifolia, pre-emergence, 480 h, 10 g ai/ha, 20 DAT, read-out: observed % activity): 90%
- inhibition at 10 g/ha (SIDRH; Sida rhombifolia, pre-emergence, 480 h, SIDRH, pre-emergence, individual, use rate 10 g ai/ha, read-out: observed % activity 20 DAT): 20%
- inhibition at 10 g/ha (SIDRH; Sida rhombifolia, pre-emergence, 480 h, pre-emergence, 10 g ai/ha, read-out: observed % activity 20 DAT): 20%
- inhibition at 18 g/ha (ELEIN; Eleusine indica, 480 h, 18 g ai/ha, read-out: observed % activity 20 DAT): 35%
- inhibition at 36 g/ha (ELEIN; Eleusine indica, 480 h, 36 g ai/ha, read-out: observed % activity 20 DAT): 95%
- inhibition at 5 g/ha (ANTAR; 5 g ai/ha): 98%
- inhibition at 5 g/ha (CENCY [6]; 5 g ai/ha): 20%
- inhibition at 10 g/ha (CENCY [6]; 10 g ai/ha): 30%

SMILES: CC(C)(F)c1nc(N)nc(Nc2c(F)c(F)cc(F)c2F)n1 [compound 2, 6-(1-Fluoro-1-methyl-ethyl)-N4-(2,3,5,6-tetrafluorophenyl)-1,3,5-triazine-2,4-diamine]
- observed % activity 20 DAT (MATIN; use rate 1 g ai/ha): 98%
- inhibition at 1 g/ha (APESV; Apera spica-venti, 480 h, APESV, use rate 1 g ai/ha, 20 DAT, read-out: observed % activity 20 DAT): 95%
- inhibition at 2 g/ha (APESV; Apera spica-venti, 480 h, APESV, use rate 2 g ai/ha, 20 DAT, read-out: observed % activity 20 DAT): 95%
- observed % activity 20 DAT (APESV; use rate 2 g ai/ha, 20 DAT): 90% and 95%
- observed % activity 20 DAT (APESV; use rate 4 g ai/ha, 20 DAT): 98%

SMILES: CC1(c2nc(N)nc(Nc3c(F)c(F)cc(F)c3F)n2)CCC1 [compound 8, 6-(1-methylcyclobutyl)-N4-(2,3,5,6-tetrafluorophenyl)-1,3,5-triazine-2,4-diamine]
- inhibition at 8 g/ha (ABUTH; 8 g ai/ha, 20 DAT, read-out: observed % activity): 80%
- inhibition at 16 g/ha (ABUTH; 16 g ai/ha, 20 DAT, read-out: observed % activity): 70%
- observed % activity (SIDRH; 8 g ai/ha, 20 DAT): 80%
- observed % activity (SIDRH; 16 g ai/ha, 20 DAT): 80%
- inhibition at 8 g/ha (SIDRH; Sida rhombifolia, pre-emergence, 480 h, 8 g ai/ha, 20 DAT, read-out: observed % activity): 65%
- inhibition at 16 g/ha (SIDRH; Sida rhombifolia, pre-emergence, 480 h, 16 g ai/ha, 20 DAT, read-out: observed % activity): 85%
- inhibition at 8 g/ha (ANTAR; 8 g ai/ha): 80%
- inhibition at 16 g/ha (ANTAR; 16 g ai/ha): 85%

SMILES: CSc1nnc(C(C)(C)C)c(=O)n1N [metribuzin]
- inhibition at 125 g/ha (ERICA [7]): 98%
- inhibition at 125 g/ha (SETVI; Setaria viridis, 480 h, 125 g ai/ha, read-out: observed % activity 20 DAT): 65%
- inhibition at 250 g/ha (SETVI; Setaria viridis, 480 h, 250 g ai/ha, read-out: observed % activity 20 DAT): 95%
- inhibition at 125 g/ha (ELEIN; Eleusine indica, 480 h, 125 g ai/ha, read-out: observed % activity 20 DAT): 98%
- inhibition at 250 g/ha (ELEIN; Eleusine indica, 480 h, 250 g ai/ha, read-out: observed % activity 20 DAT): 98%
- inhibition at 125 g/ha (CENCY [6]; 125 g ai/ha): 75%
- inhibition at 250 g/ha (CENCY [6]; 250 g ai/ha): 85%
